From PubChem BioAssay (NCI)
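Exposure lasted 48 hours, with cells grown in 96-well plates and compounds tested at five concentrations. The concentration for 50% growth inhibition is given as GI50. TGI: total growth inhibition.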

Key:
Assay in all cases: DTP human tumour cell line panel, 48 h
[1] = system: BT-549 breast
[2] = system: MDA-MB-231 breast
[3] = system: T-47D breast
[4] = system: SR leukemia
[5] = system: MDA-MB-435
[6] = system: MDA-N
[7] = system: PC-3 prostate
[8] = system: MCF7 breast
[9] = system: KM20L2 colon
[10] = system: DLD-1 colon
[11] = system: SNB-78 CNS
[12] = system: M19-MEL melanoma
[13] = system: LXFL 529 NSCLC

| SMILES | TGI [1] | TGI [2] | TGI [3] | TGI [4] | TGI [5] | TGI [6] | TGI [7] | TGI [8] | TGI [9] | TGI [10] | TGI [11] | TGI [12] | TGI [13] | also measured |
| --- | --- | --- | --- | --- | --- | --- | --- | --- | --- | --- | --- | --- | --- | --- |
| O=C(O)c1cc2ccccc2c(Cc2c(O)c(C(=O)O)cc3ccccc23)c1O | > 100 µM | > 100 µM | > 100 µM | > 100 µM | > 100 µM | > 100 µM | > 100 µM | – | – | – | – | – | – | – |
| O=C(Nc1ccccc1)c1cc2ccccc2c(N=Nc2cccc([N+](=O)[O-])c2)c1O | > 100 µM | > 100 µM | > 100 µM | > 100 µM | > 100 µM | > 100 µM | > 100 µM | > 100 µM | – | – | – | – | – | – |
| COc1cccc(N/C(C)=C2/CCOC2=O)c1 | – | > 10 µM | > 10 µM | > 10 µM | > 10 µM | > 10 µM | > 10 µM | > 10 µM | – | – | – | – | – | – |
| C=C1CC[C@@]2(C)[C@@H]([C@@H]1C)[C@H]1CC[C@@H]3[C@@]4(C)CC[C@H](O)C(C)(C)[C@@H]4CC[C@@]3(C)[C@]1(C)C[C@@H]2O | 34.6 µM | 4.75 µM | 8.76 µM | > 100 µM | 26 µM | > 51.5 µM | 10.3 µM | 9.23 µM | – | – | – | – | – | – |
| O=C([CH-]C(=O)c1ccccc1)c1ccccc1.[C-]#[O+].[C-]#[O+].[Ir] | – | – | – | – | – | – | – | – | > 100 µM | – | – | – | – | GI50 [9]: 39.7 µM |
| CC1(CO)C(O)CCC2(C)C1CCC1CC3CC12CCC3(O)CO (stereo unspecified) | – | – | – | – | – | – | – | > 100 µM | > 100 µM | > 100 µM | > 100 µM | > 100 µM | – | – |
| COc1ccc(CN(CCN(C)C)c2ccccn2)cc1 (tested in a mixture with another compound) | – | – | – | – | – | – | – | – | > 100 µM | > 100 µM | > 100 µM | – | > 100 µM | – |
| Cc1cc(N(CCC#N)S(=O)(=O)c2ccccc2)ccc1C=Nc1cccc(C(=O)O)c1 | – | – | – | – | – | – | – | – | > 100 µM | – | > 100 µM | > 100 µM | > 100 µM | – |
| C1=N[C@]23C(=N[C@H](N=C2NCc2ccco2)[C@]24N=CNC2=N[C@H]3N=C4NCc2ccco2)N1 | – | > 100 µM | > 100 µM | > 100 µM | > 100 µM | – | > 100 µM | > 100 µM | – | – | – | – | – | GI50 [2]: > 100 µM; GI50 [3]: > 100 µM; GI50 [4]: > 100 µM; GI50 [5]: > 100 µM; GI50 [8]: > 100 µM; GI50 [7]: > 100 µM |
| O=C(NN1C(=O)C(Cl)C1c1cccc(O)c1)c1ccccc1O (stereo unspecified) | – | – | – | – | – | – | – | – | – | > 100 µM | > 100 µM | > 100 µM | > 100 µM | – |
